Source: US5021408A, “Hydrocortisone-17-oxo-21-thioesters, their preparation and their uses as medicaments” (Jouveinal S.A., priority 1983, dated 1991)
Like-named read-outs stand apart in the source and are kept apart here.

Legend:
[1] = tested on: inflammation of the ear in the mouse; experiment: Local anti-inflammatory activity, croton oil ear inflammation (method derived from Tonelli); assay type: in vivo; conditions: for Anti-inflammatory activity EC50: mouse ear, croton oil, concentration giving 50% reduction in inflammation vs controls; for Anti-inflammatory activity: Activity/ref. 21 act. hydro: relative to hydrocortisone-21-acetate = 1
Description: I.1. Local anti-inflammatory activity
This study was carried out in accordance with a method derived from that of Tonelli (Endocrinology, Vol. 77, page 625, 1965).
The test consists of causing inflammation of the ear in the mouse using a croton oil-based irritating solution.
The addition of a local anti-inflammatory substance to this solution leads to a reduced inflammation action compared with that of the controls, i.e. treated with the irritating solution only.
The results of the study are expressed in EC50, which is the p/v % concentration of the dissolved product able to bring about a 50% reduction in the inflammation compared with that caused in the controls.

[2] = Systemic (thymolytic) activity, thymus weight reduction after oral administration; assay type: in vivo, rat (Wistar); conditions: rat
Description: (§1) Determination of systemic activity side effects
(§2) These effects were evaluated by means of their thymolytic activity.
(§3) The repeated administration of systemic activity products leads to a weakening of the defence systems of the organism. More especially in young animals, this leads to a reduction in the weight of two organs of the reticuloendothelial system, namely the spleen and the thymus, the latter being the most sensitive to this effect.
(§4) This activity was determined by means of a study of the activity of products on the weight reduction of the thymus of animals.
(§5) The product to be studied, suspended in 5% p/v gum arabic were orally administered daily for four consecutive days to young rats of the Wistar strain. Under the same conditions, a control batch of animals received an identical volume of the excipient.
(§6) 96 hours after the first administration, the animals were killed and their thymus removed and immediately weighed.
(§7) The results of the study are expressed in ED50, which corresponds to the daily dose in milligrams able to bring about a 50% thymus weight reduction for 1 kilogram animal weight, compared with the controls (mg/kg^-1 /day^-1).

thymus weight = experiment: as above; assay type: in vivo, rat (Wistar)
Description: as §1, §2, §3, §4, §5, §6, §7

[3] = Dissociation ratio R local anti-inflammatory activity / systemic activity; assay type: in vivo, mouse (ear inflammation) and rat (thymus); conditions: lower value = greater dissociation of activities
Description: The results obtained by this study make it possible to calculate the activity ratio:
local anti-inflammatory activity
The value of this ratio indicates the dissociation of the activities and is inversely proportional to the size of the dissociation, i.e. the lower this value, the greater the dissociation.
This value was calculated on the basis of the expression: [formula]

granuloma = conditions: according to N. Bodor; cited from earlier work
erythema = conditions: reported by O. J. Lorenzetti; cited from earlier work
[4] = young Wistar rats, oral, daily for four consecutive days, 50% thymus weight reduction vs controls, read-out: Systemic activity ED50
[5] = relative to hydrocortisone-21-acetate = 1

Row | SMILES | Anti-inflammatory activity EC50 [1] [% p/v] | Anti-inflammatory activity: Activity/ref. 21 act. hydro [1] | ED50 at 96 h ([2]; in vivo, po) [mg/kg] | Systemic activity: Activity/ref. 21 act. hydro (thymus weight; rat, in vivo, 5760 min) | R (local anti-inflammatory activity / systemic activity) [3] | systemic activity, times lower than that of prednisolone-21-thioacetate-17-valerate (thymus weight; rat, in vivo, po, 5760 min) [times] | ED50 at 96 h [2, 4] [mg/kg] | Systemic activity: Activity/ref. 21 act. hydro (thymus weight; [5]) | ED50 at 96 h ([2]; in vivo, young Wistar rats, oral, daily for four consecutive days, 50% thymus weight reduction vs controls, read-out: Systemic activity ED50) [mg/kg] | activity in the granuloma test (granuloma) | activity in the erythema test compared with the vasoconstriction test (erythema)
1 | CCCCC(=O)O[C@]1(C(=O)CSC(C)=O)CC[C@H]2[C@@H]3C[C@H](C)C4=CC(=O)C=C[C@]4(C)[C@H]3[C@@H](O)C[C@@]21C [6-α-methylprednisolone-21-thioacetate-17-valerate] | 0.5 | 0.6 | 43 | 0.325 | 116.3 | – | – | – | – | – | –
2 | CCCC(=O)O[C@]1(C(=O)CSC(C)=O)CC[C@H]2[C@@H]3CCC4=CC(=O)CC[C@]4(C)[C@H]3[C@@H](O)C[C@@]21C [Example 1, 3,20-dione-11β-hydroxypregn-4-ene-21-thioacetate-17-butyrate] | 0.0082 | 36.6 | 350 | 0.04 | 0.23 | 6 | – | – | – | – | –
3 | CCCC(=O)O[C@]1(C(=O)CSC(=O)CC)CC[C@H]2[C@@H]3CCC4=CC(=O)CC[C@]4(C)[C@H]3[C@@H](O)C[C@@]21C [Example 2, 3,20-dione-11β-hydroxypregn-4-ene-21-thiopropionate-17-butyrate] | 0.021 | 14.3 | > 1450 | < 0.0096 | 0.14 | – | – | – | – | – | –
4 | CCCC(=O)O[C@]1(C(=O)COC(=O)CC)CC[C@H]2[C@@H]3CCC4=CC(=O)CC[C@]4(C)[C@H]3[C@@H](O)C[C@@]21C [Hydrocortisone-21-propionate-17-butyrate, hydrocortisone-21-propionate-17-butyrate] | 0.0047 | 63.8 | – | – | 6.52 | – | 7.2 | 1.95 | – | – | –
5 | CC(C)(C)C(=O)SCC(=O)[C@@]1(O)CC[C@H]2[C@@H]3CCC4=CC(=O)CC[C@]4(C)[C@H]3[C@@H](O)C[C@@]21C [Hydrocortisone-21-thiopivalate, hydrocortisone-21-thiopivalate] | 2.5 | 0.12 | – | – | 6.90 | – | – | 0.0038 | 3600 | – | –
6 | CCCCC(=O)O[C@]1(C(=O)COC(C)=O)CC[C@H]2[C@@H]3CCC4=CC(=O)C=C[C@]4(C)[C@H]3[C@@H](O)C[C@@]21C [Prednisolone-21-acetate-17-valerate, prednisolone-21-acetate-17-valerate] | 0.0018 | 167 | 9 | 1.60 | 2.0 | – | – | – | – | – | –
7 | CCCCC(=O)O[C@]1(C(=O)CSC(C)=O)CC[C@H]2[C@@H]3CCC4=CC(=O)C=C[C@]4(C)[C@H]3[C@@H](O)C[C@@]21C [Prednisolone-21-thioacetate-17-valerate] | 0.008 | 37.5 | 58 | 0.24 | 1.38 | – | – | – | – | – | –
8 | CCC(=O)O[C@]1(C(=O)CSC(=O)CC)[C@@H](C)C[C@H]2[C@@H]3CCC4=CC(=O)C=C[C@]4(C)[C@@]3(Cl)[C@@H](O)C[C@@]21C [beclomethasone-21-thiopropionate-17-propionate] | 0.0175 | 17.1 | 19 | 0.74 | 9.21 | – | – | – | – | – | –
9 | CCC(=O)O[C@]1(C(=O)CSC(C)=O)[C@@H](C)C[C@H]2[C@@H]3CCC4=CC(=O)C=C[C@]4(C)[C@@]3(F)[C@@H](O)C[C@@]21C [betamethasone-21-thioacetate-17-propionate] | 0.010 | 30.0 | 2.5 | 5.60 | 40.0 | – | – | – | – | – | –
10 | CCC(=O)SCC(=O)[C@@]1(OC(C)=O)[C@@H](C)C[C@H]2[C@@H]3CCC4=CC(=O)C=C[C@]4(C)[C@@]3(F)[C@@H](O)C[C@@]21C [betamethasone-21-thiopropionate-17-acetate] | 0.012 | 25.0 | 2.4 | 5.83 | 50.0 | – | – | – | – | – | –
11 | CCC(=O)O[C@]1(C(=O)CSC(=O)CC)[C@@H](C)C[C@H]2[C@@H]3CCC4=CC(=O)C=C[C@]4(C)[C@@]3(F)[C@@H](O)C[C@@]21C [betamethasone-21-thiopropionate-17-propionate] | 0.0013 | 231 | 3 | 4.66 | 4.33 | – | – | – | – | – | –
12 | CC(=O)O[C@]1(C(=O)CSC(=O)CC(C)(C)C)[C@H](C)C[C@H]2[C@@H]3CCC4=CC(=O)C=C[C@]4(C)[C@@]3(F)[C@@H](O)C[C@@]21C [dexamethasone-21-thiotertiobutylacetate-17-acetate] | 0.0092 | 32.6 | 3 | 4.67 | 30.7 | – | – | – | – | – | –
13 | CCCC(=O)O[C@]1(C(=O)CO)CC[C@H]2[C@@H]3CCC4=CC(=O)CC[C@]4(C)[C@H]3[C@@H](O)C[C@@]21C [hydrocortisone-17-butyrate] | – | – | – | – | – | – | – | – | – | only has a limited activity in the granuloma test | good similarity of activity compared with the vasoconstriction test
14 | CC(=O)OCC(=O)[C@@]1(O)CC[C@H]2[C@@H]3CCC4=CC(=O)CC[C@]4(C)[C@H]3[C@@H](O)C[C@@]21C [hydrocortisone-21-acetate] | 0.30 | 1 | – | – | 214 | – | 14 | 1 | – | – | –
